Reference: US8101211B2, “Compositions for retarding skin aging” (Kabushiki Kaisha Yakult Honsha, priority 2000, dated 2012)
Values after ≈ are worked out from the molar mass of the structure shown.

Key:
[1] = tested on: B16 mouse melanoma cells (B16-F1 cells, ATCC No. CRL-6323); assay: Melanin formation-inhibiting test (extracellular melanin, 96-well plate method); format: cell-based; conditions: for IC50: Mus musculus, extracellular melanin, B16-F1 cells, read-out: Melanin formation inhibition IC50; for Melanin formation inhibition, % Inhibition at 0.001%: test concentration 0.001%, 3 days, theophylline 0.5 mM
Method: Measurements were made by the 96-well plate method using […] mouse melanoma cells (B16-F1 cells, ATCC No. CRL-6323) purchased from Dainippon Pharmaceutical. The cells (1×10^4) were sowed into each well and cultured in 10% FCS- and 1% antibiotic-containing D-MEM for 24 hours (37° C., 5% CO2), the medium was then replaced with D-MEM supplemented with the test substance and theophylline (0.5 mM), and cultivation was further continued for 3 days. The solvent (ethanol) for the test substance was added to the medium in a final concentration of 1%. An equal volume of HEPES buffer (pH 6.8)/ethanol (9:1) was added to the culture supernatant obtained by centrifugation and the absorbance at 475 nm to 660 nm was measured on the microplate reader EL-340 (BIO-TEK INSTRUMENT), and the melanin formation-inhibiting activity was evaluated in terms of the amount of extracellular melanin.

[2] = DPPH radical-capturing activity; conditions: concentration at which DPPH radical scavenging is 50%
Source text: [table] […] The extent of activity was expressed in terms of DPPH Radial Scavenging (%) calculated according to the following formula: DPPH Radial Scavenging (%)=(A−B)/A×100 where A: absorbance without addition of sample, B: absorbance with addition of sample. […]

IC50 [1] [µg/mL] | DPPH radical scavenging IC50 [2] [µg/mL] | SMILES | Melanin formation inhibition, % Inhibition at 0.001% [1] [%]
12.1 (≈ 44.4 µM) | – | OC[C@H]1O[C@@H](Oc2ccc(O)cc2)[C@H](O)[C@@H](O)[C@@H]1O [Arbutin] | 32.4
– | 4.1 | O=C1O[C@H]([C@@H](O)CO)C(O)=C1O [Ascorbic acid] | –
– | 13.5 | N[C@@H](CCC(=O)N[C@@H](CS)C(=O)NCC(=O)O)C(=O)O [Glutathione] | –
12.9 (≈ 90.8 µM) | – | O=c1cc(CO)occ1O [Kojic acid] | 25.7
